Measured values: US20020115117A1, “ERbeta-mediated gene expression” (priority 2000, published 2002)
Each block holds one molecule with its values, some of them ahead of it. Where no end group is shown, it is not given here.

Legend:
[1] = system: PC-3 M cells; test: Cell growth inhibition by Raloxifene and Resveratrol, PC-3 M; format: cell-based, human
From the text: (§1) Raloxifene® and Resveratrol® may also be active tumor suppressing agents utilizing the ERβ pathways. […] Treatment protocols and dosages used were similar to those described above.

[2] = system: DU145; test: Cell growth inhibition by Raloxifene and Resveratrol, DU145; format: cell-based, human
From the text: as §1

[3] = system: DU145 cells; test: Cell growth of DU145 cells, trypan blue exclusion count; format: cell-based, human; conditions: for effect on cell growth: 4-day exposure, vs vehicle control; for reduction in the cell numbers: 1 μM, 4 days, vs vehicle (absolute ethanol) control
Description: FIGS. 2A-2D are graphs summarizing data on effects of antiestrogens and estrogens on cell growth of DU145 cells. Cells (5×10^3 cells per well) were plated in triplicate wells onto a 24-well plate. After 24 hours for cell attachment, cells were treated for 4 days with antiestrogens [(A) ICI and (B) 4OH-TAM] or estrogens [(C) 17β-estradiol and (D) DES] at various concentrations as indicated. Cells treated with vehicle (absolute ethanol) were used as control. The number of viable cells at the end of 4 days of treatment was determined by the trypan blue exclusion method. Three individual experiments were performed. (Columns, means; bars, S.D.; n=9; *, p<0.001 compared to control (shaded column).
(§2) Cells were seeded at a density of 5×10^3 per ml into 24-well plates (Falcon, Becton Dickinson Labware, Lincoln Park, N.J.) in a final volume of 1 ml culture medium with 5% charcoal-stripped FBS. Twenty-four hours following seeding, triplicate wells of cells were treated in with 1 μM, 10 μM and 100 μM of estradiol-17β (E2), diethylstilbestrol (DES), 4′-hydroxytamoxifen (4OH-TAM) or ICI 182,780 (ICI). E2, DES, and 4OH-TAM were purchased from Sigma Co. (St. Louis, Mo.) and ICI was a gift from Zeneca Pharmaceuticals (Macclesfield, United Kingdom). Estrogens and antiestrogens were dissolved in absolute ethanol (Sigma Co., St. Louis, Mo.) and added to the media daily. Cell cultures not treated with estrogenic compounds received absolute ethanol as a vehicle control. Total additive ethanol concentrations never exceeded 0.2% throughout the culture period. The cells were re-fed with freshly prepared medium every other day. At the end of a 4-day treatment period, cells in each well were trypsinized and cell count determined by direct counting using the Trypan blue exclusion method. All treatment experiments were repeated at least three times to generate statistically relevant data.

[4] = system: PC-3 cells; test: Cell growth of PC-3 cells, trypan blue exclusion count; format: cell-based, human
Description: FIGS. 3A-3D are graphs summarizing data on effects of antiestrogens and estrogens on cell growth of PC-3 cells. Cell growth assay was described in […]. (A) ICI. (B) 4OH-TAM. (C) 17β-estradiol. (D) DES. Columns, means; bars, S.D.; n=9; * ,p<0.001; #, p<0.01; +, p<0.05; compared to control (shaded column).
as §2

[5] = system: ERβ; test: Competitive immunohistochemistry with GC-17 antibody; format: cell-based, human; conditions: sections of DU145 and LNCaP cells, 400 μg/ml or 40 μg/ml peptide
From the text: These cells were used to compliment and confirm that the GC-17 antibody reagent specifically detected ERβ but not ERα by immunohistochemical staining. Using the GC-17 antibody and the anti-ERα antibody (NCL-ER-6F11, Novacastra, Newcastle, UK) at the same dilutions as for tissue sections (see below), we carried out immunohistochemical studies on 10% formalin-fixed cytospins of DU145 and LNCaP cells that had been routinely processed, embedded in paraffin, sectioned at 5 μm and mounted on SuperFrost Plus™ slides (VWF Scientific, West Chester, Pa.).
Peptide competition studies were performed at the immunohistochemical level that approximated the conditions used in the ELISA assays described above. GC-17 antibody, at a dilution of 1:6000, was incubated with the immunizing ERβ peptide at concentrations of 400 μg and 40 μg at room temperature for 1 hour. In addition, competitive studies were conducted using ERα recombinant peptide (400 and 40 μg, Affinity Bioreagents Inc., Golden, Colo.) on DU145 cells. Incubation conditions and time were identical to those used for the ERβ peptide competition studies. Deparaffinized sections of DU145 and LNCaP cells and human prostate tissue were then incubated with these mixtures at room temperature for 1 hour. […]

[6] = system: recombinant ERβ protein; test: Competitive inhibition ELISA of GC-17 antibody; format: binding, human; conditions: peptide pre-incubated with GC-17 (1:6000); ERβC 4 mg-4 μg/ml, ERβN 4 mg/ml
Description: FIG. 5 is a graphic representation of the results of a competitive ELISA assay and illustrates the concentration-dependent competition of the immunizing peptide (ERβC) with a GC-17 antibody. […] The GC-17 antibodies, bound to recombinant ER-β protein on ELISA plates, were recognized by alkaline phosphatase conjugated anti-rabbit IgG antibodies. The whole complexes were visualized by incubation with p-nitrophenyl phosphate. The optical density at 405 nm was measured. The entire assay was done 4 times. The columns represent the standard deviation. w/o=GC-17 preincubated without peptide antigen.
The wells of an ELISA plate, PRO-BIND™ (Becton-Dickenson Labware, Franklin, N.J.) were coated with a recombinant protein composed of the entire ERβ sequence (PanVera, Madison, Wis.) at a concentration of 5 μg/ml. The GC17 antibody (1:6000) was then pre-incubated with the immunizing peptide at concentrations ranging from 4 mg-4 μg/ml at room temperature for 30 minutes. In addition, 4 mg of a control peptide encompassing sequences in the N-terminal region of ER-β (Research Genetics) was preincubated with the GC 17 antibody (1:6000) at room temperature for 1 hour. […] Results were quantified by optical density using the Microplate reader 550 (Bio-Rad, Richmond, Calif.). […]

[7] = system: DU145 cells; test: ICI-induced DU145 cell growth inhibition with ERβ antisense, sense or mismatch ODN; format: cell-based, human; conditions: ICI 1 μM, 4 days, no ODN
Description: FIG. 4 is a graph summarizing data on reduction of ICI-induced inhibition of DU145 cell growth by ERβ antisense oligonucleotide (ODN). Cells were treated with ICI at 10^−6 M for 4 days in the presence of 2.5 μM antisense, sense or mismatch ODNs. Columns, means; bars, S.D.; n=16; *,p<0.001 compared to control without ODN treatment.
DU145 cells (5×10^3 cells per well) were plated in 24 well-plates (Falcon, Becton Dickinson Labware, Lincoln Park, N.J.). After allowing 24 hours for cell attachment, cell cultures were treated in triplicate with 1 μM ICI in the presence of 2.5 μM ERβ antisense, sense or mismatch ODNs for 4 days. The ERβ antisense ODN, an 18-mer, was designed to recognize the first translation start site on the ERβ mRNA and its immediate 5′flanking region (Table 2, below). The nucleotide sequence of sense ODN is complementary to those of ERβ antisense ODN (Table 2). Based on the sequence of ERβ antisense ODN, 5 nucleotides were scrambled to generate a mismatch ODN that retains the same GC ratio of the ERβ antisense ODN (Table 2). Both the sense and the mismatch ODNs served as controls for the antisense ODN. In all three ODNs, the first and the last 3 nucleotides were phosphorothioate-modified to increase their stability in cellulo. Number of viable cells in each well was determined by direct counting using the Trypan blue exclusion method after a 4-day treatment period. […]

[8] = system: DU145 cells; test: cDNA expression array of DU145 cells treated with ICI 182,780; format: cell-based, human; conditions: DU145, 12 hours
Description: cDNA array technology was used to identify genes whose expression is modulated by ICI 182,780 in DU145 cells. The DU-145 cells were treated for 12 hours with ICI 182,780, and total RNA was then isolated from treated cells and untreated controls. Following poly-(A)-RNA selection of these two population of total RNA, and DNase I digestion to remove contaminating DNA, the poly (A)-RNA pools were reversed-transcribed in the presence of P32 to produce radiolabeled cDNA probes. These radiolabeled cDNA probes were applied to an Atlas™ cDNA Expression Array (600 gene array, Clontech Laboratories, Inc, Palo Alto, Calif.) using the vendor's recommended protocol.

Molecule: O=C(c1ccc(OCCN2CCCCC2)cc1)c1c(-c2ccc(O)cc2)sc2cc(O)ccc12 [Raloxifene]
efficacy compared [1]: markedly better than that of Resveratrol and ICI
inhibition of cell growth [1]: marked inhibition of cell growth
efficacy compared [2]: markedly better than that of Resveratrol and ICI
inhibition of cell growth [2]: marked inhibition of cell growth

Molecule: Oc1ccc(C=Cc2cc(O)cc(O)c2)cc1 [Resveratrol]
inhibition of cell growth [1]: marked inhibition of cell growth
inhibition of cell growth [2]: marked inhibition of cell growth

Molecule: CC/C(=C(/CC)c1ccc(O)cc1)c1ccc(O)cc1 [DES, diethylstilbestrol]
effect on cell growth [3]: did not affect cell growth
effect on cell growth ([4]; various concentrations): did not elicit statistically significant cell growth inhibition

Molecule: CC/C(=C(\c1ccccc1)c1ccc(OCCN(C)C)cc1)c1ccc(O)cc1 [4OH-TAM, 4′-hydroxytamoxifen]
reduction in the cell numbers [3]: around 25%

Molecule: C[C@]12CC[C@@H]3c4ccc(O)cc4CC[C@H]3[C@@H]1CC[C@@H]2O [E2, estradiol-17β]
effect on cell growth [3]: did not affect cell growth
effect on cell growth ([4]; 1 μM, p<0.05): induced inhibition of cell growth
effect on cell growth ([4]; 10 μM, p<0.01): induced inhibition of cell growth

suppression of GC-17 binding to the recombinant protein [6]: successfully suppressed binding
Molecule: ERβC: immunizing peptide, C-terminus of ERβ (amino acids 449-465), 4-branch Multiple Antigenic Peptide (QQQSMRLANLLMLLSHV; also: 4-branch Multiple Antigenic Peptide)
effect on nuclear staining by GC-17 [5]: totally abolished nuclear staining

Molecule: C[C@]12CC[C@@H]3c4ccc(O)cc4C[C@@H](CCCCCCCCC[S+]([O-])CCCC(F)(F)C(F)(F)F)[C@H]3[C@@H]1CC[C@@H]2O (stereo partly drawn) [ICI 182,780]
reduction in cell number [7]: 40%
reduction in the cell numbers [3]: 40%
effect on cell growth [3]: dose-dependent inhibition of cell numbers
Fold difference relative to control ([8]; gene: 5-hydroxytryptamine A1 receptor (E4h)): +6.6
Fold difference relative to control ([8]; gene: BCL-2 related A1 protein (BFL-1)(C4H)): +9.6
Fold difference relative to control ([8]; gene: Embryonic growth/differentiation factor (GDF-1)): +4.5
Fold difference relative to control ([8]; gene: IFN-α/β receptor): +2.7
Fold difference relative to control ([8]; gene: Interleukin-12 alpha chain (IL-12)(F6K)): +10.6
Fold difference relative to control ([8]; gene: RYK receptor-like tyrosine kinase (E2c)): +3.6
Fold difference relative to control ([8]; gene: TL1309): +2.7
